Results on one molecule are retold here after patent US9487508B2, “SGC stimulators” (IRONWOOD PHARMACEUTICALS, INC., priority 2012, dated 2016).

Some results are limits rather than exact numbers.

The target in test [1] is T1, Human soluble guanylate cyclase enzyme (hsGC) (Homo sapiens, UniProt Q02108+Q02153).
T1 construct: purchased Enzo Inc. ALX-201-177
T1 sequence (Q02153 1-619): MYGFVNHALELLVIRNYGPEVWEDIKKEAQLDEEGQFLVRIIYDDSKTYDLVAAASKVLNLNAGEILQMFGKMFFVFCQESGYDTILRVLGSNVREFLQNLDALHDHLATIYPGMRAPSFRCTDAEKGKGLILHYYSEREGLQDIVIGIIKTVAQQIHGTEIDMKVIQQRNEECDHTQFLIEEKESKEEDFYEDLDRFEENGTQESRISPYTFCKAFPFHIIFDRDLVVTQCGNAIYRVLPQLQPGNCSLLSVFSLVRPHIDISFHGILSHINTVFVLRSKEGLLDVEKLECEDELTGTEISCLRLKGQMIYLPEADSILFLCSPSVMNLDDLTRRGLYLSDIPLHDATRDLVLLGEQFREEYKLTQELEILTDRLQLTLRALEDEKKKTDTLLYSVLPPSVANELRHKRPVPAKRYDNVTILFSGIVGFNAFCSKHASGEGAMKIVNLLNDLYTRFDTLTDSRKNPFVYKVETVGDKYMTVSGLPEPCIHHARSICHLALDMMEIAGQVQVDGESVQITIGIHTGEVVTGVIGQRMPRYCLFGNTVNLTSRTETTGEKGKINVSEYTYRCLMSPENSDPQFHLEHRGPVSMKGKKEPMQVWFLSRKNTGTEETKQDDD
T1 sequence (Q02108 1-690): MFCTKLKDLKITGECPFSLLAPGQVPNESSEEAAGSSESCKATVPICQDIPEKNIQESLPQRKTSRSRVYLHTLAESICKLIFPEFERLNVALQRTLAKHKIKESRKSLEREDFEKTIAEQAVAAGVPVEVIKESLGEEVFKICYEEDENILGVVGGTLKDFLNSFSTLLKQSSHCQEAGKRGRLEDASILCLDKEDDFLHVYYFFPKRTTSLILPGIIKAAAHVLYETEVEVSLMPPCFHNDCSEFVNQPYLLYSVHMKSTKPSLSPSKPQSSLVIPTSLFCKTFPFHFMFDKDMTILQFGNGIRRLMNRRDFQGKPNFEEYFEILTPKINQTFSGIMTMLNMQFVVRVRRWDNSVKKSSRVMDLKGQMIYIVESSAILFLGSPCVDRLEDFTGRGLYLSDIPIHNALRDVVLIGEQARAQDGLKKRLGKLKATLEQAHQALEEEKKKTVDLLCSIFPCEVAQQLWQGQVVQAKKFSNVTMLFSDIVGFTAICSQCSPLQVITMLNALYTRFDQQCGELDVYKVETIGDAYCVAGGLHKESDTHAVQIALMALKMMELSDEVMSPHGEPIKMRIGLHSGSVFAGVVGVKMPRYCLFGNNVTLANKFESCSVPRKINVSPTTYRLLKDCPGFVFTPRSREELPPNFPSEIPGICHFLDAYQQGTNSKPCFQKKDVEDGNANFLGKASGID
Nature of the test: Purified human sGC enzyme activity assay (without SNP). The following applies: 30 μM compound, fold change of specific activity vs DMSO control. Format: biochemical. Here is the method:
Human soluble guanylate cyclase enzyme (hsGC) obtained from Enzo Inc. (P/N: ALX-201-177) was used to evaluate the activity of test compounds. The assay reactions contained 0.1 M Tris (pH 8.0), 0.5 mg/mL BSA (pH 8.0), 2 mM DTT, 2 mM MgCl2, 300 μM GTP, 1 mM 3-isobutyl-1-methylxanthine (IBMX) and 5 ng human soluble guanylate cyclase enzyme. Test compounds in DMSO were then added (2 μL, 10 or 30 μM final concentration) and incubated (water, 200 μL, 96-well plate format) at 37° C. for 30 minutes. The controls were carried out using 2 μL DMSO. After the 30 minute incubation, the reaction was stopped with the addition of 200 μL of cold methanol. The plate was then centrifuged at 3,200 rpm for 10 minutes at room temperature. Supernatants (200 μL) were collected and transferred to a new 96 well plate for analysis by HPLC LC/MS/MS.
An 8 point cGMP (Sigma-Aldrich P/N: G6129) standard curve was prepared in assay buffer ranging from 0.156-20 μM. Samples for the cGMP standard curve were then diluted with an equal volume of methanol resulting in final cGMP concentrations of 0.078-10 μM.
The cGMP standard curve was generated using GraphPad Prism Software.
Calculations: Specific Activity was determined by the amount of cGMP formed (nmoles) per mg of sGC per min. Enzyme “fold-change” was calculated by dividing Specific Activity for test compounds by Specific Activity of DMSO controls.

The next test relates to Thoracic aortic rings. Nature of the test: Thoracic aortic rings assay (Example 5). Set-up: species or system Sprague-Dawley rats. Conditions: rings contracted with 100 ng/mL phenylephrine. On the procedure:
Thoracic aortic rings were dissected from anesthetized (isoflurane) male Sprague-Dawley rats weighing 275-299 g. Tissues were immediately transferred to ice-cold Krebs-Henseleit solution, which had been aerated with 95% O2 and 5% CO2 for 30 minutes. Following removal of connective tissue, aortic sections were cut into 4 rings (˜2 mm each) and suspended on 2 L-shaped hooks, with one hook fixed at the bottom of the tissue bath (Schuler Organ Bath, Harvard Apparatus) and the other connected to a force transducer (F30 Force Transducer, Harvard Apparatus). Baths contained Krebs Henseleit solution (10 mL) heated to 37° C. and aerated with 95% O2 and 5% CO2. Rings were brought to an initial tension of 0.3-0.5 g and gradually raised to a resting tension of 1.0 g over 60 minutes. Rings were rinsed with Krebs Henseleit solution (heated to 37° C. and aerated with 95% 02 and 5% CO2) at 15 minute intervals until a stable baseline was obtained. Rings were considered to be stable after a resting tension of 1.0 g was maintained (for approximately 10 minutes) without need for adjustment. Rings were then contracted with 100 ng/mL phenylephrine by adding 100 uL of a 10 µg/mL phenylephrine stock solution. Tissues achieving a stable contraction were then treated in a cumulative, dose dependent manner with test compounds prepared in dimethylsulfoxide (DMSO). In some cases, tissues were rinsed three times over a 5 minute period with Krebs-Heinseleit's solution (heated to 37° C. and aerated with 95% 02 and 5% CO2), allowed to stabilize at baseline, and then used for characterization of other test articles or DMSO effects. All data were collected using the HSE-ACAD software provided by Harvard Apparatus. Percent relaxation effects were calculated in Microsoft Excel using the recorded tension value of 100 ng/mL phenylephrine treatment as 0% inhibition and treatment with 100 μM 3-isobutyl-1-methylxanthine as 100% inhibition. EC50 values were calculated from concentration-response curves generated with GraphPad Prism Software.
As an alternative thoracic aortic rings assay, the procedure of Example 5 was used except that percent relaxation effects were calculated in Microsoft Excel using the recorded tension value of 100 ng/mL phenylephrine treatment as 0% inhibition and, after washing the tissue with buffer, the original resting tension of the tissue was used as 100% inhibition.
The biological data for some of the compounds of Formula I or Formula Ib, in comparison with the known compound, BAY 41-2272, as the reference compound, determined by the thoracic aorta ring assay of Example 5 are presented in Table 6 below.

As to `Nc1ccnc(-n2cc(-c3ncco3)c(Cc3ccccc3F)n2)n1` [Compound I-2], the “Enzyme Activity (increase at 30 μM without SNP)” value in test [1] is given as “C (C = 5 to <10 fold increase)”. Moreover, the “Aortic Ring Percent Relaxation at 1 μM” value with Thoracic aortic rings (1 μM, resting tension = 100%) was “E (E = 60 or <80%)”. For the same molecule, the “Aortic Ring Percent Relaxation at 3 μM” value in the test with Thoracic aortic rings (3 μM, resting tension = 100%) is “F (F = 80 to <100%)”. In the test with Thoracic aortic rings (10 μM, resting tension = 100%), the “Aortic Ring Percent Relaxation at 10 μM” value was “G (G = 100 to <120%)”. In the test on Thoracic aortic rings (Rattus norvegicus, read-out: Aortic Ring EC50), the EC50 was less than 2 µM.

Usually EC50 stands for the concentration at which the effect is half-maximal.
